# According to patent publication US11633400B2:
# What was measured:
# [1] = cited from earlier work; for aqueous solubility: at room temperature, known values
# Water content by TG-FTIR = details: sample according to Example 1; relative humidity of about 35%
# Protocol: Thermogravimetric measurements were carried out with a Netzsch Thermo-Microbalance TG 209 coupled to a Bruker FTIR Spectrometer Vector 22 (sample pans with a pinhole, N2 atmosphere, heating rate 10 K/min).
# This value was determined by TG-FTIR at a relative humidity of about 35%. This sample was examined by dynamic water vapor sorption analysis (DVS) within the relative humidity range from 0 to 95% r.h. DVS measurements were conducted as described above.
# (§1) This sample was examined by dynamic water vapor sorption analysis (DVS) within the relative humidity range from 0 to 95% r.h. DVS measurements were conducted as described above.
# [2] = Hygroscopicity by dynamic water vapor sorption analysis (DVS)
# Protocol: DVS measurements were conducted as follows: The sample was placed on an aluminum holder on top of a microbalance and allowed to equilibrate at 50% RH before starting the pre-defined humidity program:
# (1) two hours kept at 50% constant relative humidity (RH) then
# (2) raised RH to 95% at a rate of 5% per hour
# (3) maintained RH at 95% for five hours
# (4) reduced to 0% RH at a rate of 5% per hour
# (5) maintained RH at 0% for five hours
# (6) raised RH to 95% at a rate of 5% per hour
# (7) maintained RH at 95% for five hours
# (8) reduced to 0% RH at a rate of 5% per hour
# (9) maintained RH at 0% for five hours
# (10) raised to 50% RH at a rate of 5% per hour
# (11) maintained RH at 50% for about one hour
# as §1
structure (smiles),measurement,setting,value
CN1c2c([nH]c(N)nc2=O)NC[C@@H]1CNc1ccc(C(=O)N[C@@H](CCC(=O)O)C(=O)O)cc1,solubility in water (in words),[1]; water,poorly soluble
CN1c2c(nc(N)[nH]c2=O)NC[C@@H]1CNc1ccc(C(=O)N[C@@H](CCC(=O)O)C(=O)O)cc1.OCCN1CCOCC1,water content (TG-FTIR),Water content by TG-FTIR,about 8.9 % w/w
same,change of water content,"[2]; DVS, range from 20% to 80% relative humidity",about 2%
same,water adsorption compared with the crystalline polymorphic forms of the calcium salt,[2]; under changing relative humidity,significantly lower
CN1c2c([nH]c(N)nc2=O)NC[C@@H]1CNc1ccc(C(=O)N[C@@H](CCC(=O)[O-])C(=O)[O-])cc1.[Ca+2] [Form I],aqueous solubility,[1],about 10 mg/ml
CN1c2c([nH]c(N)nc2=O)NC[C@@H]1CNc1ccc(C(=O)N[C@@H](CCC(=O)[O-])C(=O)[O-])cc1.[Ca+2] [calcium salt (Form III)],aqueous solubility,[1],about 2.5 mg/ml
